Measured values: BindingDB's records for PubMed 9686407 (Sri International, 1998)
Non-standard residues stand in square brackets, D forms with d. Residues, ends and D or L forms follow the SMILES beside them. NMeF = CN[C@@H](Cc1ccccc1)C(=O)O

Legend:
Mu-type opioid receptor = Mu-type opioid receptor (Cavia porcellus, UniProt P97266)
[1] = target: Kappa-type opioid receptor (Cavia porcellus, UniProt P41144)
[2] = target: 5-hydroxytryptamine receptor 5A (Rattus norvegicus, UniProt P35364)
[3] = target: T1, 5-hydroxytryptamine receptor 2C (Rattus norvegicus, UniProt P08909)
T1 sequence (P08909 whole entry): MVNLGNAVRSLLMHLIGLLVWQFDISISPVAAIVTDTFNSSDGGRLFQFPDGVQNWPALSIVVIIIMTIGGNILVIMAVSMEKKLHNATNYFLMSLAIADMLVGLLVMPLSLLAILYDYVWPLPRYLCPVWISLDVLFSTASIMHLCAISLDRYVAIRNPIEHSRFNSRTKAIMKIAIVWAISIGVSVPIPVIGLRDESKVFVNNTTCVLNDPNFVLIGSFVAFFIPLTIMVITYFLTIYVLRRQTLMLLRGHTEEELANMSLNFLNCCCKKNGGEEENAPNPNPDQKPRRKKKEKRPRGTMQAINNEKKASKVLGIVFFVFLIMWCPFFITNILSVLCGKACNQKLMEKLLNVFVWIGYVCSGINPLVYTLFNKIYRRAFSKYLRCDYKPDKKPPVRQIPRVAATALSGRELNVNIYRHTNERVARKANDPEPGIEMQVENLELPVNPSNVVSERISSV

Mu-type opioid receptor, sequence (P97266 whole entry): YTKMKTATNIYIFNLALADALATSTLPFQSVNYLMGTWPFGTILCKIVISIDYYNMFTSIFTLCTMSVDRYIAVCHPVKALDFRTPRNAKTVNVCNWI
Kappa-type opioid receptor, sequence (P41144 whole entry): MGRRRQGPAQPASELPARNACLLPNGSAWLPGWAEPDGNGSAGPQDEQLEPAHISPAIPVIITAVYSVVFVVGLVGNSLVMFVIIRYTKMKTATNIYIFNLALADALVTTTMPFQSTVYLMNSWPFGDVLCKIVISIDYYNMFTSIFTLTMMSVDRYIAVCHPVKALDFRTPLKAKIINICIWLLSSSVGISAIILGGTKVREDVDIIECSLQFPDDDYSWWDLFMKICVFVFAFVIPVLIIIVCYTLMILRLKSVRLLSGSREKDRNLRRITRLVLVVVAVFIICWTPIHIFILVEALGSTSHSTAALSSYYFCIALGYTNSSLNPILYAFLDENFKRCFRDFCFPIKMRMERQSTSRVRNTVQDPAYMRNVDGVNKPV
5-hydroxytryptamine receptor 5A, sequence (P35364 whole entry): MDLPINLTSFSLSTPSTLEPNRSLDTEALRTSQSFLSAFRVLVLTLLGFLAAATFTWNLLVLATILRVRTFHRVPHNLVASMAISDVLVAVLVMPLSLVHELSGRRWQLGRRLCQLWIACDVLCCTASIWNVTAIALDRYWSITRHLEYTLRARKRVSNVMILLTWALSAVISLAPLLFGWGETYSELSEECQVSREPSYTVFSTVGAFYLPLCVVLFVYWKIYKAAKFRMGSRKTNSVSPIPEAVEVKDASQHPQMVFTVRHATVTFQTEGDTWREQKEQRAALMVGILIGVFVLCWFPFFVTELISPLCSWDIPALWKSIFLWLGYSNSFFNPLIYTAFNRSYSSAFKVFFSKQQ

| Molecule | Ki (Mu-type opioid receptor) | Ki [1] | Ki [2] | Ki [3] |
| --- | --- | --- | --- | --- |
| CN1CCC2(C)c3cc(O)ccc3CC1C2(C)CCC(=O)CCC1CCCC1 (configuration not stated) [CAS_115077] | 0.1 nM | 0.2 nM |  |  |
| CC(C)=CCN1CC[C@@]2(C)c3cc(O)ccc3C[C@@H]1[C@@H]2C [Talwin] | 5.7 nM | 4.4 nM |  |  |
| COc1ccc2c3c1OC1C(O)C=CC4C(C2)N(C)CCC341 (configuration not stated) [NSC_223652] | 152 nM | > 10000 nM |  |  |
| CC(C)C[C@H](NC(=O)[C@H](Cc1ccccc1)NC(=O)CNC(=O)[C@@H](CO)NC(=O)[C@@H](N)Cc1ccc(O)cc1)C(=O)N[C@H](C(=O)O)[C@@H](C)O [DSLET-OH] | 20.6 nM | > 10000 nM |  |  |
| Oc1ccc2c3c1O[C@H]1c4oc5ccccc5c4C[C@@]4(O)[C@@H](C2)N(CC2CC2)CC[C@]314 [CAS_111555-58-9] | 6.5 nM | 10.2 nM |  |  |
| C=CCN1CCC23c4c5ccc(O)c4O[C@@H]2C(=NNC(=O)c2ccccc2)CCC3(O)C1C5 (some centres not stated) | 0.2 nM | 0.4 nM |  |  |
| Oc1ccc2c3c1OC1c4[nH]c5ccccc5c4CC4(O)[C@H](C2)N(CC2CC2)CCC314 (some centres not stated) [NALTRINDOLE] | 0.2 nM | 7.8 nM |  |  |
| H-YGGFMTSEKSQTPLVTLFKNAIVKNAHKKGQ-OH [Beta-Endorphin] | 2.3 nM | 43.5 nM |  |  |
| C[C@@H](NC(=O)[C@@H](N)Cc1ccc(O)cc1)C(=O)NCC(=O)N(C)[C@@H](Cc1ccccc1)C(=O)NCCO [[tyrosyl-3,5-3H(N)]-D-Ala2-Mephe4-glyol5-enkephalin] | 1.1 nM | 1840 nM |  |  |
| CC[C@H](C)[C@H](NC(=O)[C@H](CCCN=C(N)N)NC(=O)[C@H](CCCN=C(N)N)NC(=O)[C@H](CC(C)C)NC(=O)[C@H](Cc1ccccc1)NC(=O)CNC(=O)CNC(=O)[C@@H](N)Cc1ccc(O)cc1)C(=O)O |  | 1.4 nM |  |  |
| CN1CC[C@]23CCCC[C@H]2[C@H]1Cc1ccc(O)cc13 [CAS_5985-38-6] | 0.3 nM | 3.4 nM |  |  |
| CC(C)[C@H](NC(=O)[C@H](CCC(=O)O)NC(=O)[C@H](Cc1ccccc1)NC(=O)[C@@H](C)NC(=O)[C@@H](N)Cc1ccc(O)cc1)C(=O)N[C@H](C(=O)NCC(N)=O)C(C)C [Tyr-D-Ala-Phe-Glu-Val-Val-GlyNH2] |  | > 10000 nM |  |  |
| CN(C(=O)[C@@H]1CCCN1C(=O)[C@@H](N)Cc1ccc(O)cc1)[C@@H](Cc1ccccc1)C(=O)N1CCC[C@@H]1C(N)=O (H-YP[NMeF][dP]-NH2) | 8.1 nM | > 10000 nM |  |  |
| C=C1CCC2(O)C3Cc4ccc(O)c5c4C2(CCN3CC2CC2)C1O5 (configuration not stated) [NSC_119501] | 0.3 nM | 0.3 nM |  |  |
| C[C@@H]1[C@@H]2Cc3ccc(O)cc3[C@@]1(C)CCN2CC1CC1 [(SSS)-12-Cyclopropylmethyl-13-methyl-12-aza-tricyclo[9.1.1.0*3,8*]trideca-3(8),4,6-trien-6-ol(cyclazocine)] |  | 0.1 nM |  |  |
| CC(C)C[C@@H](NC(=O)[C@H](Cc1ccccc1)NC(=O)CNC(=O)[C@@H](C)NC(=O)[C@@H](N)Cc1ccc(O)cc1)C(=O)O [[D-Ala2-D-Leu5]enkephalin] | 3.2 nM | > 10000 nM |  |  |
| C=CCN1CC[C@]23c4c5ccc(O)c4O[C@H]2[C@@H](O)C=CC3[C@H]1C5 (some centres not stated) [NALORPHINE - HCI] | 1.9 nM | 1.7 nM |  |  |
| Oc1ccc2c3c1OC1C(O)C=CC4C(C2)NCCC341 (configuration not stated) [NORMORPHINE] | 3.9 nM | 64.5 nM |  |  |
| NCC(O)c1ccc(O)c(O)c1 (stereo not drawn) [Noradrenaline,(+)] |  |  | > 10000 nM | > 10000 nM |
| C[C@@H](O)[C@H](NC(=O)[C@H]1NC(=O)[C@H]([C@@H](C)O)NC(=O)[C@H](CCCN=C(N)N)NC(=O)[C@@H](Cc2c[nH]c3ccccc23)NC(=O)[C@H](Cc2ccc(O)cc2)NC(=O)[C@@H](NC(=O)[C@H](N)Cc2ccccc2)CSSC1(C)C)C(N)=O [CTAP-NH2] | 0.5 nM | 1050 nM |  |  |
